Starred links: 1 amine or outer side, 2 acyl side, 3 side chain; linkers in the order of their positions; H or OH if unused. Positions of bridges follow the written chain, without caps; N, C: chain ends. Residues, ends and D or L forms follow the SMILES beside them. Groups on a side chain read outwards from the residue. *: point of attachment. γGlu = O=C(O)[C@H](CCC(=O)[*:2])N[*:1]; Palmitoyl = CCCCCCCCCCCCCCCC(=O)*; Isovaleryl = CC(C)CC(=O)*

The target of the first assay is T1, human ferroportin (Homo sapiens, UniProt Q9NP59).
T1 construct: expressed in transfected cells
T1 sequence (Q9NP59 1-571): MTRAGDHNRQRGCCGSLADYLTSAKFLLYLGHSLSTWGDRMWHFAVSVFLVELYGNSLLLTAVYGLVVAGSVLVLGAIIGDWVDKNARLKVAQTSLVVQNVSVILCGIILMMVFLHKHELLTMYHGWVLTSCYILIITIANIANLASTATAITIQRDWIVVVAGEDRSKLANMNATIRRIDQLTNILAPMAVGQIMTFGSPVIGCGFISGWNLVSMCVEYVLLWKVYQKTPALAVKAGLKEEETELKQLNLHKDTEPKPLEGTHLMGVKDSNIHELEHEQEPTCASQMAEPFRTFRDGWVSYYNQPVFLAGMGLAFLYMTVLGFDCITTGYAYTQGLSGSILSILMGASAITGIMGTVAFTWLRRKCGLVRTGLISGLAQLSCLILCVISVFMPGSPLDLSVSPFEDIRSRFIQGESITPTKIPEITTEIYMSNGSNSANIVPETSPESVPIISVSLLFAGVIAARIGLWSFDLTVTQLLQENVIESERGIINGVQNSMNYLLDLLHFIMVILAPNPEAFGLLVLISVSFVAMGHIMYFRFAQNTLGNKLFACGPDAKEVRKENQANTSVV
As to the kind of experiment: Ferroportin internalization / degradation, HEK-GFP cell based assay (HEK293 cells stably expressing ferroportin-GFP, decrease in GFP fluorescence). The following applies: Table 3 monomer analogues; ferroportin-GFP HEK293 cells, 18-24 h incubation; read-out: HEK-GFP cell based assay (potency EC50). Here is the method: Peptide analogues were tested in vitro for induction of internalization of the human ferroportin protein. Following internalization, the […] are degraded. The assay measures a decrease in fluorescence of the receptor.
The cDNA encoding the human ferroportin (SLC40A1) was cloned from a cDNA clone from Origene (NM_014585). The DNA encoding the ferroportin was amplified by PCR using primers also encoding terminal restriction sites for subcloning, but without the termination codon. The ferroportin receptor was subcloned into a mammalian GFP expression vector containing a neomycin (G418) resistance marker in such that the reading frame of the ferroportin was fused in frame with the GFP protein. The fidelity of the DNA encoding the protein was confirmed by DNA sequencing. HEK293 cells were used for transfection of the ferroportin-GFP receptor expression plasmid. The cells were grown according to standard protocol in growth medium and transfected with the plasmids using Lipofectamine (manufacturer's protocol, Invitrogen). […] The cells were propagated and frozen in aliquots.
Compound was added to desired final concentration for at least 18 hours in the incubator. […] Compound was added to desired final concentration for at least 18 hours but no more than 24 hours in the incubator.
The EC50 of these reference compounds for ferroportin degradation was determined according to the activity assay described above. These peptides served as control standards.
These values were determined as described herein.
On to `CC[C@H](C)[C@@H]1NC(=O)[C@@H](NC(=O)[C@@H]2CCCN2C(=O)[C@H](Cc2ccccc2)NC(=O)[C@H](Cc2c[nH]cn2)NC(=O)[C@@H](NC(=O)[C@H](CC(=O)O)NC(=O)CC(C)C)[C@@H](C)O)CSSC[C@@H](C(=O)N[C@@H](CCCCN)C(N)=O)NC(=O)CNC(=O)[C@H](CCCCN)NC(=O)[C@H](CO)NC(=O)[C@H](CCCNC(=N)N)NC(=O)[C@@H]2CCCN2C(=O)[C@H](CCCCNC(C)=O)NC(=O)[C@H](Cc2ccccc2)NC(=O)[C@H](CCCCN)NC1=O` [Compound 25], for which the DC50 came out at 14 nM.

`CC[C@H](C)[C@@H]1NC(=O)[C@@H](NC(=O)[C@@H]2CCCN2C(=O)[C@H](Cc2ccccc2)NC(=O)[C@H](Cc2c[nH]cn2)NC(=O)[C@@H](NC(=O)[C@H](CC(=O)O)NC(=O)CC(C)C)[C@@H](C)O)CSSC[C@@H](C(=O)N[C@@H](CCCCN)C(N)=O)NC(=O)CNC(=O)[C@H](CCCCN)NC(=O)[C@H](CO)NC(=O)[C@H](CCCNC(=N)N)NC(=O)[C@@H]2CCCN2C(=O)[C@H](CCCCNC(=O)CC[C@H](NC(=O)CC(C)C)C(=O)O)NC(=O)[C@H](Cc2ccccc2)NC(=O)[C@H](CCCCN)NC1=O` [Compound 15]: the DC50 was 26 nM.

`CCCCCCCCCCCCCCCC(=O)N[C@@H](CCC(=O)NCCCC[C@@H]1NC(=O)[C@H](Cc2ccccc2)NC(=O)[C@H](CCCCN)NC(=O)[C@H](CCCCN)NC(=O)[C@@H](NC(=O)[C@@H]2CCCN2C(=O)[C@H](Cc2ccccc2)NC(=O)[C@H](Cc2c[nH]cn2)NC(=O)[C@@H](NC(=O)[C@H](CC(=O)O)NC(=O)CC(C)C)[C@@H](C)O)CSSC[C@@H](C(=O)N[C@@H](CCCCN)C(N)=O)NC(=O)CNC(=O)[C@H](CCCCN)NC(=O)[C@H](CO)NC(=O)[C@H](CCCNC(=N)N)NC(=O)[C@@H]2CCCN2C1=O)C(=O)O` [Compound 11] (Isovaleryl-DTHFPCKKFK([γGlu-Palmitoyl])PRSKGCK-NH2; disulfide 6-16): the DC50 stood at 22 nM.

Consider `CCCCCCCCCCCCCCCC(=O)NCCOCCOCCC(=O)NCCCC[C@@H]1NC(=O)[C@H](Cc2ccccc2)NC(=O)[C@H](CCCCN)NC(=O)[C@H]([C@@H](C)CC)NC(=O)[C@@H](NC(=O)[C@@H]2CCCN2C(=O)[C@H](Cc2ccccc2)NC(=O)[C@H](Cc2c[nH]cn2)NC(=O)[C@@H](NC(=O)[C@H](CC(=O)O)NC(=O)CC(C)C)[C@@H](C)O)CSSC[C@@H](C(=O)N[C@@H](CCCCN)C(N)=O)NC(=O)CNC(=O)[C@H](CCCCN)NC(=O)[C@H](CO)NC(=O)[C@H](CCCNC(=N)N)NC(=O)[C@@H]2CCCN2C1=O` [Compound 16], for which the DC50 was 36 nM.

Take `CCCCCCCCCCCCCCCC(=O)N[C@@H](CCC(=O)NCCCC[C@@H]1NC(=O)[C@H](Cc2ccccc2)NC(=O)[C@H](CCCCN)NC(=O)[C@H]([C@@H](C)CC)NC(=O)[C@@H](NC(=O)[C@@H]2CCCN2C(=O)[C@H](Cc2ccccc2)NC(=O)[C@H](Cc2c[nH]cn2)NC(=O)[C@@H](NC(=O)[C@H](CC(=O)O)NC(=O)CC(C)C)[C@@H](C)O)C(C)(C)SSC[C@@H](C(=O)N[C@@H](CCCCN)C(N)=O)NC(=O)CNC(=O)[C@H](CCCCN)NC(=O)[C@H](CO)NC(=O)[C@H](CCCNC(=N)N)NC(=O)[C@@H]2CCCN2C1=O)C(=O)O` [Compound 4, Isovaleric acid-DTHFP-[Pen]-IKF-[Lys(IsoGlu-Palm)]-PRSKGCK-NH2]: the DC50 turned out to be 68 nM.

On to `CCCCCCCCCCCCCCCC(=O)NCCCCCC(=O)NCCCC[C@@H]1NC(=O)[C@H](Cc2ccccc2)NC(=O)[C@H](CCCCN)NC(=O)[C@H]([C@@H](C)CC)NC(=O)[C@@H](NC(=O)[C@@H]2CCCN2C(=O)[C@H](Cc2ccccc2)NC(=O)[C@H](Cc2c[nH]cn2)NC(=O)[C@@H](NC(=O)[C@H](CC(=O)O)NC(=O)CC(C)C)[C@@H](C)O)CSSC[C@@H](C(=O)N[C@@H](CCCCN)C(N)=O)NC(=O)CNC(=O)[C@H](CCCCN)NC(=O)[C@H](CO)NC(=O)[C@H](CCCNC(=N)N)NC(=O)[C@@H]2CCCN2C1=O` [Compound 22], for which the DC50 was 18 nM.

Regarding `CCCCCCCCCCCCCCCC(=O)NCCCCCC(=O)NCCCC[C@@H]1NC(=O)[C@H](Cc2ccccc2)NC(=O)[C@H](CCCCN)NC(=O)[C@H]([C@@H](C)CC)NC(=O)[C@@H](NC(=O)[C@@H]2CCCN2C(=O)[C@H](Cc2ccccc2)NC(=O)[C@H](Cc2c[nH]cn2)NC(=O)[C@@H](NC(=O)[C@H](CC(=O)O)NC(=O)CC(C)C)[C@@H](C)O)CSSC[C@@H](C(=O)N[C@@H](CCCCN)C(N)=O)NC(=O)CN(C)C(=O)[C@H](CCCCN)NC(=O)[C@H](CO)NC(=O)[C@H](CCCNC(=N)N)NC(=O)[C@@H]2CCCN2C1=O` [Compound 24], the DC50 came to 10 nM.

Take `CCCCCCCCCCCCCCCC(=O)N[C@@H](CCC(=O)NCCCC[C@@H]1NC(=O)[C@H](Cc2ccccc2)NC(=O)[C@H](CCCCN)NC(=O)[C@H]([C@@H](C)CC)NC(=O)[C@@H](NC(=O)[C@@H]2CCCN2C(=O)[C@H](Cc2ccccc2)NC(=O)[C@H](Cc2c[nH]cn2)NC(=O)[C@@H](NC(=O)[C@H](CC(=O)O)NC(=O)CC(C)C)[C@@H](C)O)CSSC[C@@H](C(=O)N[C@@H](CCCCN)C(N)=O)NC(=O)CN(C)C(=O)[C@H](CCCCN)NC(=O)[C@H](CO)NC(=O)[C@H](CCCNC(=N)N)NC(=O)[C@@H]2CCCN2C1=O)C(=O)O` [Compound 6]: the DC50 came to 11 nM.

On to `CCCCCCCCCCCCCCCC(=O)N[C@@H](CCC(=O)NCCCC[C@@H]1NC(=O)[C@H](Cc2ccccc2)NC(=O)[C@H](CCCCN)NC(=O)[C@H]([C@@H](C)CC)NC(=O)[C@@H](NC(=O)[C@@H]2CCCN2C(=O)[C@H](Cc2ccccc2)NC(=O)[C@H](Cc2c[nH]cn2)NC(=O)[C@@H](NC(=O)[C@H](CC(=O)O)NC(=O)CC(C)C)[C@@H](C)O)CSSC[C@@H](C(N)=O)NC(=O)CNC(=O)[C@H](CCCCN)NC(=O)[C@H](CO)NC(=O)[C@H](CCCNC(=N)N)NC(=O)[C@@H]2CCCN2C1=O)C(=O)O` [Compound 9], for which the DC50 is 11 nM.

For the molecule `CCCCCCCCCCCCCCCC(=O)N[C@@H](CCC(=O)NCCCC[C@@H]1NC(=O)[C@H](Cc2ccccc2)NC(=O)[C@H](CCCCN)NC(=O)[C@H]([C@@H](C)CC)NC(=O)[C@@H](NC(=O)[C@@H]2CCCN2C(=O)[C@H](Cc2ccccc2)NC(=O)[C@H](Cc2c[nH]cn2)NC(=O)[C@@H](NC(=O)[C@H](CC(=O)O)NC(=O)CC(C)C)[C@@H](C)O)CSSC(C)(C)[C@@H](C(=O)N[C@@H](CCCCN)C(N)=O)NC(=O)CNC(=O)[C@H](CCCCN)NC(=O)[C@H](CO)NC(=O)[C@H](CCCNC(=N)N)NC(=O)[C@@H]2CCCN2C1=O)C(=O)O` [Compound 5], the DC50 was determined as 13 nM.

The assay is the same for the next values; noted with them: Table 9 reference compounds; ferroportin degradation; read-out: Potency EC50.
Regarding `CC[C@H](C)[C@H](NC(=O)[C@H](CS)NC(=O)[C@@H](NC(=O)[C@@H]1CCCN1C(=O)[C@H](Cc1ccccc1)NC(=O)[C@H](Cc1c[nH]cn1)NC(=O)[C@@H](NC(=O)[C@@H](N)CC(=O)O)[C@@H](C)O)[C@@H](C)CC)C(=O)N[C@@H](Cc1ccccc1)C(N)=O` [Mini-Hepcidin 1-9, reference compound], the EC50 – broadly, the concentration at which the effect is half-maximal – turned out to be 712 nM.

Source of the values: patent US11472842B2 (Protagonist Therapeutics, Inc., priority 2015, dated 2022).
